Where “and” joins values, the source holds several entries; their conditions need not be identical. Equal entries are not always repeated.
What was measured:
[1] = target: T1, E. coli GluRS (Escherichia coli, UniProt P04805); assay: Isothermal titration microcalorimetry of Glu-AMS binding to GluRS in the absence of tRNA; settings: no tRNA; for Kd: Kd (dissociation constant), Kd = 1/Kb
T1 construct: His tag (histidine tag) (C); made in house
Experimental: Overproduction and purification of E. coli GluRS were performed as previously described with the following modifications. A C-terminal histidine-tagged GluRS was used instead of the N-terminal tagged one. The overproduction was induced overnight at 30°C with 1 mM IPTG.
The GluRS solution with or without tRNA was dialyzed overnight in a D-tube dialyzer (Novagen) against 2 L of dialysis buffer (50 mM HEPES-KOH, pH 7.2, 10 mM MgCl2) at 4°C with light stirring. The next morning, the dialyzed solution was recovered and the volume adjusted by adding dialysis buffer to obtain the desired concentration (typically 9 μM GluRS and 11 μM tRNA^Glu). This solution was kept on ice until use. Glu-AMS was diluted in the dialysis buffer to obtain a final concentration of 90 μM. All buffers and solutions were degased with stirring under vacuum. The microcalorimetry experiments were carried out in a VP-ITC 100 microcalorimeter (MicroCal, GE Healthcare) using deionized water as an internal reference for all assays. VPViewer ITC 2000 and Origin v 5.0 softwares (Microcal Software, Inc) were used for data collection and analysis, respectively.
To measure the thermodynamic parameters of the interaction between Glu-AMS and GluRS, in the presence and in the absence of tRNA, a solution containing 9 μM GluRS with or without a stoichiometric excess of tRNA^Glu or S. cerevisiae tRNA^Phe (Table 1) was placed in the sample cell of the microcalorimeter. The following conditions were used for all tests: reference power was set at 12 μcal/s and stirring at 300 rpm, the “high” feedback mode and “No check Temp”, “Fast Equil” and “Auto” ITC equilibration options were selected. The 90 μM Glu-AMS solution was loaded in the injection syringe. After a first injection of 1 μL over 2 s, a series of 39 injections (7.4 μL over 14.8 s) with 240 s between injections was performed. Injections of Glu-AMS in GluRS alone, GluRS•tRNA^Glu or GluRS•tRNA^Phe, were performed at 30°C (303 K), and done in duplicate. Injections of Glu-AMS in GluRS were also performed at 20°C and 37°C (293 and 310 K): 14 injections (20 μL over 40 s) followed the first injection of 1 μL. Each temperature was tested in duplicate, and in triplicate at 37°C.
The following nomenclature was used to describe the interaction at equilibrium between Glu-AMS and either GluRS or a GluRS•tRNA complex: GluRS•Glu-AMS↔GluRS+[…] Kd=[GluRS]×[Glu-AMS]/[GluRS•Glu-AMS] 1/Kd=Kb (binding constant, sometimes referred to as Ka).

[2] = tested on: murine hepatic GluRS; set-up: method as in PMID 15895686; settings: cited from earlier work
[3] = single ITC run, 293 K, [ligand] 90 µM, [GluRS] 4.15 µM
[4] = single ITC run, 293 K, [ligand] 90 µM, [GluRS] 4.35 µM
[5] = single ITC run, 303 K, [ligand] 90 µM, [GluRS] 4.143 µM
[6] = single ITC run, 303 K, [ligand] 90 µM, [GluRS] 5.355 µM
[7] = single ITC run, 310 K, [ligand] 90 µM, [GluRS] 3.169 µM
[8] = single ITC run, 310 K, [ligand] 90 µM, [GluRS] 3.931 µM
[9] = single ITC run, 310 K, [ligand] 90 µM, [GluRS] 4.015 µM
[10] = 30°C (303 K), weighted mean of ITC runs

T1 sequence (P04805 whole entry): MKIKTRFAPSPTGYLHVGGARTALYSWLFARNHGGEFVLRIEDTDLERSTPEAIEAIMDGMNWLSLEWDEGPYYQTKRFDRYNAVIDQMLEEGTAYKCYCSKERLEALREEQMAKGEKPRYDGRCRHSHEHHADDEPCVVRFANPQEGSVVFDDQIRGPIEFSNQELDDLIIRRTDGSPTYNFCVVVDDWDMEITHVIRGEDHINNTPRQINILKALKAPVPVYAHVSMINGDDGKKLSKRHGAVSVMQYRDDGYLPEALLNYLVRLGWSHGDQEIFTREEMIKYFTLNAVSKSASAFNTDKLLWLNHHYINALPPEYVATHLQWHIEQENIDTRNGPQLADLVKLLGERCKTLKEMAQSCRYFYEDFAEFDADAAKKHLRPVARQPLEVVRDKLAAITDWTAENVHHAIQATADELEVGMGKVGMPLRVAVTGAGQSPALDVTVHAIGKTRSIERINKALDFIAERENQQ

Work on Nc1ncnc2c1ncn2[C@@H]1O[C@H](COS(=O)(=O)NC(=O)[C@@H](N)CCC(=O)O)[C@@H](O)[C@H]1O [Glu-AMS, 5’-O-[N-(L-glutamyl)sulfamoyl]adenosine] yielded a Kd [1, 3] of 545 ± 162 nM, a Kd [1, 4] of 547 ± 150 nM and a Kd [1, 5] of 281 ± 39 nM. The Kd [1, 6] was 307 ± 28 nM, the Kd [1, 7] was 256 ± 20 nM and the Kd [1, 8] was 318 ± 82 nM. The Kd [1, 9] was 231 ± 37 nM, the “-TΔSb” value [1, 10] was -3.996 ± 0.05 kcal/mol and the “n (stoichiometry coefficient)” value [1, 10] was 0.9998 ± 0.0094. For the same compound, the “ΔHb (reaction enthalpy)” value [1, 10] was -5.041 ± 0.063 kcal/mol, the “ΔSb (reaction entropy)” value [1, 10] was 13.2 cal/mol·K and 13.19 ± 0.16 cal/mol·K and the “-TΔSb” value ([1]; 293 K, mean of ITC runs) was -4.479 ± 0.218 kcal/mol. For the same compound, the “n (stoichiometry coefficient)” value ([1]; 293 K, mean of ITC runs) was 1.0097 ± 0.0369, the “ΔHb (reaction enthalpy)” value ([1]; 293 K, mean of ITC runs) was -3.929 ± 0.191 kcal/mol and the “ΔSb (reaction entropy)” value ([1]; 293 K, mean of ITC runs) was 15.29 ± 0.74 cal/mol·K. The “ΔGb (reaction energy)” value ([1]; 293 K, mean of ITC runs, ΔGb = -RT Ln Kb) was -8.396 ± 0.0016 kcal/mol, the “-TΔSb” value ([1]; 310 K, mean of ITC runs) was -2.835 ± 0.036 kcal/mol and the “n (stoichiometry coefficient)” value ([1]; 310 K, mean of ITC runs) was 1.0016 ± 0.0095. The “ΔHb (reaction enthalpy)” value ([1]; 310 K, mean of ITC runs) was -6.395 ± 0.081 kcal/mol, the “ΔSb (reaction entropy)” value ([1]; 310 K, mean of ITC runs) was 9.146 ± 0.117 cal/mol·K and the “ΔGb (reaction energy)” value ([1]; 310 K, mean of ITC runs, ΔGb = -RT Ln Kb) was -9.326 ± 0.1 kcal/mol. The “change in heat capacity (ΔCp)” value ([1]; from ΔHb at 293, 303 and 310 K) was -143 ± 23 cal/mol·K, the “-TΔSb” value [1, 3] was -4495 ± 320 and the “n (stoichiometry coefficient)” value [1, 3] was 1.014 ± 0.054. For the same compound, the “ΔGb (reaction energy)” value [1, 3] was -8.397 kcal/mol, the “ΔHb (reaction enthalpy)” value [1, 3] was -3.909 ± 0.279 kcal/mol and the “ΔSb (reaction entropy)” value [1, 3] was 15.34 ± 1.09 cal/mol·K. The “-TΔSb” value [1, 4] was -4465 ± 297, the “n (stoichiometry coefficient)” value [1, 4] was 1.006 ± 0.050 and the “ΔGb (reaction energy)” value [1, 4] was -8.395 kcal/mol. For the same compound, the “ΔHb (reaction enthalpy)” value [1, 4] was -3.946 ± 0.263 kcal/mol, the “ΔSb (reaction entropy)” value [1, 4] was 15.24 ± 1.01 cal/mol·K and the “-TΔSb” value [1, 5] was -3936 ± 97. The “n (stoichiometry coefficient)” value [1, 5] was 0.9963 ± 0.0184, the “ΔGb (reaction energy)” value [1, 5] was -9.083 kcal/mol and the “ΔHb (reaction enthalpy)” value [1, 5] was -5.142 ± 0.127 kcal/mol. For the same compound, the “ΔSb (reaction entropy)” value [1, 5] was 12.99 ± 0.32 cal/mol·K, the “-TΔSb” value [1, 6] was -4018 ± 58 and the “n (stoichiometry coefficient)” value [1, 6] was 1.001 ± 0.011. The “ΔGb (reaction energy)” value [1, 6] was -9.029 kcal/mol, the “ΔHb (reaction enthalpy)” value [1, 6] was -5.007 ± 0.073 kcal/mol and the “ΔSb (reaction entropy)” value [1, 6] was 13.26 ± 0.19 cal/mol·K. For the same compound, the “-TΔSb” value [1, 7] was -2680 ± 41, the “n (stoichiometry coefficient)” value [1, 7] was 0.9997 ± 0.0114 and the “ΔGb (reaction energy)” value [1, 7] was -9.349 kcal/mol. The “ΔHb (reaction enthalpy)” value [1, 7] was -6.654 ± 0.102 kcal/mol, the “ΔSb (reaction entropy)” value [1, 7] was 8.646 ± 0.132 cal/mol·K and the “-TΔSb” value [1, 8] was -2978 ± 147. For the same compound, the “n (stoichiometry coefficient)” value [1, 8] was 1.005 ± 0.037, the “ΔGb (reaction energy)” value [1, 8] was -9.217 kcal/mol and the “ΔHb (reaction enthalpy)” value [1, 8] was -6.225 ± 0.307 kcal/mol. For the same compound, the “ΔSb (reaction entropy)” value [1, 8] was 9.607 ± 0.473 cal/mol·K, the “-TΔSb” value [1, 9] was -3531 ± 90 and the “n (stoichiometry coefficient)” value [1, 9] was 1.006 ± 0.019. The “ΔGb (reaction energy)” value [1, 9] was -9.413 kcal/mol, the “ΔHb (reaction enthalpy)” value [1, 9] was -5.873 ± 0.15 kcal/mol and the “ΔSb (reaction entropy)” value [1, 9] was 11.39 ± 0.29 cal/mol·K. The “times less efficient against murine hepatic GluRS than against E. coli GluRS” value [2] was 25 times.

From paper PMC4393105, “tRNA^Glu Increases the Affinity of Glutamyl-tRNA Synthetase for Its Inhibitor Glutamyl-Sulfamoyl-Adenosine, an Analogue of the Aminoacylation Reaction Intermediate Glutamyl-AMP: Mechanistic and Evolutionary Implications” (PLoS ONE, 2015)
